Results as given in patent publication US20040197222A1 (priority 2002, published 2004).
“Also recorded” adds a separate entry of the source. Like-named read-outs stand apart in the source and are kept apart here.

Columns and labels:
[1] = test system: B. stearothermophilus spores (10^5, ATCC #7953); assay type: cell-based, Bacillus stearothermophilus
[2] = test system: B. subtilis var. niger spores (10^6, ATCC #9372); assay type: cell-based, Bacillus subtilis var. niger; details: for germination of B. subtilis spores: exposure as long as 164 hours
[3] = test system: 10^6 spores of B. subtilis var. niger ATCC # 9372; assay type: cell-based, Bacillus subtilis var. niger; details: trailer, 20 sites, 28 °C to 38 °C, 250 to 350 oz/mcf, 48 hours
[4] = test system: 10^5 of B. stearothermophilus ATCC # 7953; assay: Trailer field fumigation, combined-species spore strips incubated for B. stearothermophilus; assay type: cell-based, Bacillus stearothermophilus
[5] = test system: B. subtilis var. niger strips containing 10^8 spores; assay type: cell-based, Bacillus subtilis var. niger; details: 28 °C to 38 °C, 250 to 350 oz/mcf, 48 hours
[6] = test system: Bacillus anthracis ANR-1 spores; assay type: cell-based; details: 37 °C; for reduction in B. anthracis spores: all concentrations tested (80 to 320 mg/L)
B. atrophaeus spores = assay type: cell-based
[7] = test system: G. stearothermophilus spores; assay type: cell-based

CBr [methyl bromide]
Spore Germination B. stearo. [1]: no and yes | germination of Bacillus stearothermophilus spores [1]: prevented from germinating | Spore Germination B. subtilis ([2]; 19 °C, MeBr 48 mg/l (theoretical), 104 hours, 5,000 mg-hr/l): yes | Spore Germination B. subtilis ([2]; 19 °C, MeBr 48 mg/l (theoretical), 146 hours, 7,000 mg-hr/l): yes | Spore Germination B. subtilis ([2]; 19 °C, MeBr 80 mg/l (theoretical), 112 hours, 9,000 mg-hr/l): yes | Spore Germination B. subtilis ([2]; 19 °C, MeBr 80 mg/l (theoretical), 134 hours, 11,000 mg-hr/l): yes | Spore Germination B. subtilis ([2]; 19 °C, MeBr 80 mg/l (theoretical), 164 hours, 13,120 mg-hr/l): yes | Spore Germination B. subtilis ([2]; 19 °C, MeBr 160 mg/l (theoretical), 164 hours, 26,240 mg-hr/l): yes | germination of B. subtilis spores ([2]; 19 °C, methyl bromide 48 to 80 mg/l (theoretical value)): still germinated | germination of B. subtilis spores ([2]; 19 °C, methyl bromide as high as 320 mg/l (theoretical value)): still able to germinate | B. subtilis spore germination ([2]; 27 °C, methyl bromide 320 mg/l (theoretical value), 72 hours): successfully disabled | germination of the B. subtilis spores ([2]; 32 °C, methyl bromide 160 mg/l (theoretical value), 72 hours): not sufficient to stop germination; also recorded: not sufficient to prevent germination | B. subtilis spore germination ([2]; 32 °C, methyl bromide 240 mg/l (theoretical value), 38 hours): successfully disabled | Spore Germination B. subtilis ([2]; Example 1, 19 °C, MeBr 48 mg/l (theoretical), 63 hours, 3,000 mg-hr/l): yes | Spore Germination B. subtilis ([2]; Example 2, 19 °C, MeBr 48 mg/l (theoretical), 63 hours, 3,000 mg-hr/l): yes | Spore Germination B. subtilis ([2]; Example 2, 20 °C, MeBr 320 mg/l (theoretical), 72 hours, 23,040 mg-hr/l): yes | Spore Germination B. subtilis ([2]; Example 2, 20 °C, MeBr 320 mg/l (theoretical), 96 hours, 30,720 mg-hr/l): yes | Spore Germination B. subtilis ([2]; Example 2, 27 °C, MeBr 240 mg/l (theoretical), 48 hours, 11,520 mg-hr/l): yes | Spore Germination B. subtilis ([2]; Example 2, 27 °C, MeBr 320 mg/l (theoretical), 72 hours, 23,040 mg-hr/l): no | Spore Germination B. subtilis ([2]; Example 2, 27 °C, MeBr 320 mg/l (theoretical), 96 hours, 30,720 mg-hr/l): no | Spore Germination B. subtilis ([2]; Example 2, 27 °C, MeBr 320 mg/l (theoretical), 96 hours, 30,720 mg-hr/l, chamber contained office commodities): no^4 | Spore Germination B. subtilis ([2]; Example 3, 19 °C, MeBr 48 mg/l (theoretical), 63 hours, 3,000 mg-hr/l): no | Spore Germination B. subtilis ([2]; Example 3, 27 °C, MeBr 320 mg/l (theoretical), 62 hours, 19,776 mg-hr/l): no | Spore Germination B. subtilis ([2]; Example 3, 32 °C, MeBr 160 mg/l (theoretical), 72 hours, 11,520 mg-hr/l): yes | Spore Germination B. subtilis ([2]; Example 3, 32 °C, MeBr 240 mg/l (theoretical), 48 hours, 11,520 mg-hr/l): no | Spore Germination B. subtilis ([2]; Example 3, 32 °C, MeBr 240 mg/l (theoretical), 72 hours, 17,280 mg-hr/l): no | Spore Germination B. subtilis ([2]; Example 3, 32 °C, MeBr 320 mg/l (theoretical), 38 hours, 12,160 mg-hr/l): no | Spore Germination B. subtilis ([2]; Example 3, 32 °C, MeBr 320 mg/l (theoretical), 47 hours, 15,104 mg-hr/l): no | spores on all 10^6 B. subtilis strips, field fumigation [3]: successfully disabled | spores on all 10^6 B. subtilis strips, field fumigation ([3]; listed as MB): killed | spores on all 10^5 B. stearothermophilus strips, field fumigation [4]: successfully disabled; also recorded: killed | germination of spores in strips with concentrations of 10^8, field fumigation [5]: successfully disabled | lowest total concentration at which treatment is effective (B. anthracis) ([6]; 48 hours): 80 mg/L | reduction in B. anthracis spores ([6]; 48 hours): ≥ 7 log | reduction in B. anthracis spores ([6]; 48 hours, listed as MB): ≥ 6 log | B. anthracis spores in chamber 6 ([6]; chamber 6, 48 hours): completely killed | B. anthracis spores remaining (detection level) ([6]; out of 14 million, 80 to 320 mg/L, 48 hours): < 50 spores | Recovery of viable spores, commercial spore strips B. atrophaeus (B. atrophaeus spores): no growth; also recorded: growth | killing of B. atrophaeus spores on a spore strip (B. atrophaeus spores): insufficient to kill all B. atrophaeus spores | Recovery of viable spores, commercial spore strips G. stearothermophilus A [7]: no growth | Recovery of viable spores, commercial spore strips G. stearothermophilus B [7]: no growth; also recorded: growth | killing of G. stearothermophilus spores on a spore strip [7]: capable of killing all G. stearothermophilus spores
